Columns and labels:
[1] = target: T1, porcine pancreatic lipase (PPL) (Sus scrofa, UniProt P00591); assay: In vitro digestion in simulated intestinal fluid (SIF), pH-stat; type: in vitro ADME; details: SIF alone; 200 mg fat emulsion, pH 6.8, 37° C.
T1 construct: by porcine pancreatic lipase (from pancreatin); purchased Sigma-Aldrich P7585; host or cells: porcine pancreas extract (pancreatin)
T1 sequence (P00591 1-450): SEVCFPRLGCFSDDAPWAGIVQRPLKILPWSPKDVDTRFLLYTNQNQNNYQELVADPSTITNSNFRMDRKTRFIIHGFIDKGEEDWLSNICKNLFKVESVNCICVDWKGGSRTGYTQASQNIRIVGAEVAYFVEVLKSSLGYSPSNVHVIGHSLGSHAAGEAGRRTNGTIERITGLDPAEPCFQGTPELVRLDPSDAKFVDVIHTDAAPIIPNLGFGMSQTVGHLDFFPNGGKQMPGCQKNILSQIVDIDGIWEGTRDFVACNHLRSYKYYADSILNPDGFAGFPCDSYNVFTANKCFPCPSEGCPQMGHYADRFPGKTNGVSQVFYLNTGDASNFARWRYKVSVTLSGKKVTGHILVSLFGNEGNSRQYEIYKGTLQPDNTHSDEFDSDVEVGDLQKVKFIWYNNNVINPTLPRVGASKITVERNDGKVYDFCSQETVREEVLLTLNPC
T1 sequence (P02703 23-112 partner): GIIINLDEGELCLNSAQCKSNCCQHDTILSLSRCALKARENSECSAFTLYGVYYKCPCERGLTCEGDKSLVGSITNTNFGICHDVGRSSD
Method: (§1) The lipid emulsion (2 mL) containing 200 mg of fat was subjected to gastrointestinal in vitro lipolysis. […] For gastric digestion, the sample was incubated for 90 minutes with 8.5 mL of simulated gastric fluid (SGF), which consisted of 150 mM NaCl, 450 U/mL pepsin, 18 U/mL rabbit gastric lipase at 37° C. and a pH of 5.5.
The intestinal digestion step was performed in the pH stat where the pH was kept constant at 6.8 by addition of NaOH (0.05 M). […] The intestinal digestion step starts when the temperature reaches 37±0.5° C. The pH was adjusted to pH 6.8 and after incubation of two minutes at this pH and temperature, a pancreatin solution (5 mM tris, 150 mM NaCl at pH 6.8) was added. […] During the intestinal phase of digestion, the kinetics of digestion were followed using a pH-stat (TIM856, Radiometer) technique and expressed as titratable acid (rather than fatty acid) that was calculated by the equation: […]
(§2) Since the digestion of dietary lipids involves lipases of both gastric and intestinal origin, lipid digestibility was assessed using two digestion models i) simulated intestinal fluid (SIF) with porcine pancreatic lipase (PPL) and ii) sequential digestion in simulated gastric fluid (SGF) with rabbit gastric lipase (RGL) followed by simulated intestinal fluid (SIF) with porcine pancreatic lipase (PPL).

[2] = tested on: rabbit gastric lipase (RGL) followed by porcine pancreatic lipase (PPL); assay: Sequential in vitro digestion SGF followed by SIF, pH-stat; type: in vitro ADME
Method: as §1
The intestinal digestion step was performed in the pH stat where the pH was kept constant at 6.8 by addition of NaOH (0.05 M). […] The intestinal digestion step starts when the temperature reaches 37±0.5° C. The pH was adjusted to pH 6.8 and after incubation of two minutes at this pH and temperature, a pancreatin solution (5 mM tris, 150 mM NaCl at pH 6.8) was added. The final composition of the intestinal fluid was 10 mM CaCl2, 12 mM mixed bile salts, 0.75 mM phospholipid, 150 mM NaCl and 4 mM tris(hydroxymethyl)aminomethane buffer. The intestinal digestion step was carried out for 3 hours in a titration manager from Radiometer. During the intestinal phase of digestion, the kinetics of digestion were followed using a pH-stat (TIM856, Radiometer) technique and expressed as titratable acid (rather than fatty acid) that was calculated by the equation:
TA: Total titratable acid released, mmol; VNaOH: volume of NaOH used to titrate the released acid in 3 h, m L.
as §2

CCCC(=O)OCC(COC(=O)CCC)OC(=O)CCC [tributyrin]
initial rate of lipolysis [1]: 223 ± 59 µmol/min | initial lipolysis rate in SIF compartment ([2]; SGF-SIF sequential digestion, 200 mg fat emulsion): 44.1 ± 8.8 µmol/min | hydrolysis in the stomach (gastric lipolysis), in words ([2]; gastric compartment of the model): extensive hydrolysis | lipolysis by gastric lipase ([2]; indicated by decreased total fatty acid release in SIF after RGL pre-exposure): ~60%
